Results reported in ChEMBL document CHEMBL1148133, “New diterpene glycosides of the fungus Acremonium striatisporum isolated from a sea cucumber” (J Nat Prod, 2002).
Values after ≈ are worked out from the molar mass of the structure shown.

Experiments:
[1] = Cytotoxicity against mouse EAC; format: functional, cell-based; conditions: Ehrlich
[2] = Cytotoxicity against Strongylocentrotus intermedius developing egg; format: functional

Structure (SMILES)	IC50 [1] [µM]	MIC [2] [µM]
C=C[C@]1(C)C=C2[C@H](O)C[C@@H]3[C@](C)(CC[C@H](O)[C@]3(C)CO[C@@H]3O[C@H](CO)[C@@H](O)[C@@H](O)[C@@H]3O)[C@H]2CC1 [VIRESCENOSIDE O]	20	–
C=C[C@@]1(C)CCC2=C(C1)C(=O)C[C@H]1[C@@](C)(CO[C@@H]3O[C@H](CO)[C@@H](O)[C@@H](O)[C@@H]3O)[C@@H](O)CC[C@]21C [VIRESCENOSIDE P]	20	5 (≈ 2.4 µg/mL)
C=C[C@@]1(C)CC[C@H]2C(=CC[C@@H]3[C@]2(C)CC[C@H](O)[C@]3(C)CO[C@@H]2O[C@H](CO)[C@@H](O)[C@H](O)[C@@H]2O)C1 [VIRESCENOSIDE Q]	20	–
